In patent publication US6514509B2, “Method for production on the spot of a disinfectant peracetic acid system” (Farmec S.n.c. di Tabasso Renato & C., priority 1998, dated 2003):
Where two headings read alike, the source gives them in different places.

How the values were obtained:
[1] = system: spores of bacillus subtilis; conditions: alcohol at concentrations of about 20% (or higher); cited from earlier work
[2] = Specific gravity of the solutions at 20° C.; type: physicochemical
Protocol: (§1) The above listed components were weighed separately, taking particular care with the concentrated sulfuric acid, which must be handled under a hood and with protection gloves. The components were mixed in the above listed sequence, making sure that the component being dealt with was perfectly mixed before adding the next one. After addition of the components, the mixture was stirred for 15 minutes, left to rest for 10 minutes and a sample was retrieved for checking its chemical and physical properties.
(§2) The following chemical-physical properties were measured: […]

[3] = pH (10% w/w in deionized water) at 20° C.; type: physicochemical
Protocol: as §1, §2

[4] = Miscibility in water; type: physicochemical
Protocol: as §1, §2

[5] = cited from earlier work
[6] = system: Gram + and Gram − bacteria, fungi and yeasts; conditions: cited from earlier work
[7] = cited from earlier work; remark: listed apart in the source
[8] = system: Poliovirus; conditions: cited from earlier work
[9] = system: Bacterial spores; conditions: cited from earlier work
[10] = system: Enterovirus; conditions: cited from earlier work
[11] = properties of commercial hydrogen peroxide; cited from earlier work
[12] = properties of commercial hydrogen peroxide; cited from earlier work; remark: listed apart in the source
[13] = properties of commercial hydrogen peroxide; cited from earlier work; remark: listed apart in the source
[14] = properties of commercial hydrogen peroxide; cited from earlier work; remark: listed apart in the source

CC(C)O [Isopropyl alcohol]
effect with PAA as regards its germicidal activity [1]: synergistic effect

OO [Hydrogen peroxide, 50% w/w, Hydrogen peroxide]
Specific gravity at 20° C. [2]: 1.280 g/mL | pH (10% w/w in deionized water) at 20° C. [3]: 2.00-3.00 U of pH | Miscibility in water [4]: full

OO [hydrogen peroxide]
loss of active ingredient per year ([5]; hydrogen peroxide (30 to 90%), per year): less than 1%

CC(=O)OO [PAA, peracetic acid]
Contact times ([6]; 100 ppm PAA): ≤ 5 min | Effect on medical and surgical instruments ([6]; 100 ppm PAA): Low-level disinfection | Contact times ([6]; in the presence of organic material, 200-500 ppm PAA): ≤ 5 min | Effect on medical and surgical instruments ([6]; in the presence of organic material): Low-level disinfection | Ppm (%) of PAA ([6]; inactivated and killed in the presence of organic material): 200-500 Ppm | Ppm (%) of PAA ([6]; microorganisms are inactivated and killed): 100 (0.01%) Ppm | solubility in water [7]: infinite | Contact times [8]: 15 min | Ppm (%) of PAA [8]: 1500-2250 Ppm | Effect on medical and surgical instruments [9]: Sterilization | Ppm (%) of PAA [9]: 500-30,000 Ppm | Contact times ([9]; lower end of the 500-30,000 ppm range): 15 min | Contact times ([9]; upper end of the 500-30,000 ppm range): 0.25 min | loss of active ingredient per month ([5]; 40% w/w solution, per month): 1 to 2% | Contact times ([10]; 2000 ppm PAA): 10 to 30 min | Ppm (%) of PAA [10]: 2000 (0.2%) Ppm

CCO [Ethyl alcohol]
effect with PAA as regards its germicidal activity [1]: synergistic effect

OO [Hydrogen peroxide, 35% w/w, Hydrogen peroxide]
pH (10% w/w in deionized water) at 20° C. [11]: 2.00-3.00 U of pH | Vapor pressure at 20° C. [12]: 17-20 mbar | Miscibility in water [13]: full | Specific gravity at 20° C. [14]: 1.132 g/mL
